Measurements published in US12599608B2, “Methods for treating cardiac valve disease” (The Regents of the University of California, priority 2018, dated 2026).
Entries after “also recorded” stand apart in the source; their conditions may differ.

Tests used:
N1^+/− ECs = experiment: Whole transcriptome RNA-seq of N1^+/− ECs treated with network-correcting molecules; type: cell-based, human; conditions: for repressive effect on cadherin-11 mRNA expression: FIG. 9A; for restoration of the N1-dependent network as a whole: FIGS. 2E, 3A
Procedure: ECs were lysed and RNA was isolated using the Qiagen RNeasy Micro purification kit. RNA-seq libraries were constructed using the Clontech SMRTer Stranded RNA-seq Library Prep Kit for Illumina per kit protocol. Libraries were analyzed by Agilent Bioanalyzer, normalized to equivalent concentration, pooled, gel purified, and sequenced 75 bp paired-end on an Illumina NextSeq instrument with 10% PhiX.
Sequencing quality was assessed with FASTQC (located on the web by placing “www.” in front of “bioinformatics.babraham.ac.uk/projects/fastqc/”). Reads were aligned to the hg19 (Homo sapiens assembly February 2009) transcriptome and genome using the Spliced Transcripts Alignment to a Reference (STAR) Aligner (Dobin et al., Bioinformatics. 2012; 29:15-21) and differential expression was analyzed using Cuffdiff (Trapnell et al., Nat Biotechnol. 2012; 31:46-53). HOPACH was used for clustering with the correlation metric (van der Laan and Pollard; located on the web by placing “www.” in front of “bioconductor.org/packages/devel/bioc/manuals/hopach/man/hopach.pdf”. GO analyses were completed using GO-Elite and ToppGene (Chen et al., Nucleic Acids Research. 2009; 37:W305-W311; Zambon et al., Bioinformatics. 2012; 28:2209-2210). Network diagrams were generated using NetworkX (Hagberg et al., SciPy. 2008) based on network connections inferred from mRNA-seq gene expression of isogenic N1^+/− compared to WT ECs with colors based on whole transcriptome RNA-seq gene expression of DMSO- vs small molecule-treated WT and N1^+/− ECs.

N1^+/−/mTR^G2 mice = experiment: In vivo small molecule treatment, AV and PV peak velocity by echocardiography; conditions: XCT790 5 mg/kg/day i.p., TG003 0.3 or 2 mg/kg/day i.p. pooled; for AV stenosis by echocardiography: AV peak velocity versus DMSO; for PV stenosis by echocardiography: PV peak velocity versus DMSO
Procedure: Protocols were reviewed/approved by UCSF Institutional Animal Care and Use Committee, San Francisco, CA. N1^+/− and mTR^het C57Bl6 mice (purchased from Jackson Labs: #002797 and #004132, respectively) were used to generate double mutant animals. Breedings were performed as previously described (Theodoris et al., The Journal of Clinical Investigation. 2017; 127:1683) to generate N1^+/−/[…] mice. Mice were treated with XCT790 (5 mg/kg/day), TG003 (0.3 mg/kg/day or 2 mg/kg/day, results pooled for analysis), Fmoc-leu (0.6 mg/kg/day), GSK837149A (4.5 mg/kg/day), biperiden (10 mg/kg/day), CB1954 (15 mg/kg/day), putrescine (0.26 mg/kg/day), naloxone (25 mg/kg/day), all by intraperitoneal injection, and RO4929097 (60 mg/kg/day) by oral gavage, or equivalent volume of solvent (DMSO or saline) for four weeks starting at the fourth postnatal week.
Echocardiography was performed under isofluorane anesthesia with standard measurement techniques using the Vevo 770 Imaging System (VisualSonics) equipped with an RMV-707B transducer with central frequency of 30 MHz. Peak blood flow velocity through AVs and PVs was obtained by pulsed wave Doppler in the modified parasternal long and short axis views. The average of three cardiac cycles was used for each measurement.

| SMILES | repression of genes aberrantly activated in N1-haploinsufficient ECs (N1^+/− ECs; FIG. 2A) | repressive effect on cadherin-11 mRNA expression (N1^+/− ECs) | restoration of the N1-dependent network as a whole (N1^+/− ECs) | AV stenosis by echocardiography (N1^+/−/mTR^G2 mice) | PV stenosis by echocardiography (N1^+/−/mTR^G2 mice) | restoration of transcription of genes repressed in N1-haploinsufficient ECs (N1^+/− ECs; FIG. 2A) | correlation of gene expression of treated N1^+/− ECs with WT ECs (N1^+/− ECs; FIG. 2B) | restorative effect on regulatory nodes SOX7 and TCF4 (N1^+/− ECs; FIG. 2D) |
| --- | --- | --- | --- | --- | --- | --- | --- | --- |
| CCN1/C(=C/C(C)=O)Sc2ccc(OC)cc21 [TG003, (Z)-1-(3-ethyl-5-methoxy-2,3-dihydrobenzothiazol-2-ylidene)propan-2-one] | broadly effective at repressing these genes, albeit to a lesser degree | strongest repressive effect | strong restorative effect | did not significantly impact | did not significantly impact |  |  |  |
| COc1cc(/C=C(\C#N)C(=O)Nc2nnc(C(F)(F)F)s2)ccc1OCc1ccc(C(F)(F)F)cc1C(F)(F)F [XCT790, 2E-3-(4-{[2,4-bis(trifluoromethyl)benzyl]oxy}-3-methoxyphenyl)-2-cyano-N-[5-(trifluoromethyl)-1,3,4-thiadiazol-2-yl]acrylamide] | most effective at repressing genes aberrantly activated in N1-haploinsufficient ECs | strongest repressive effect | most effective at restoring both aberrantly activated and repressed genes; also recorded: corrected the greatest number of genes to the greatest degree; also recorded: strongest restorative effect on central regions of the network | showed a trend of reducing AV stenosis | sufficient to prevent PV stenosis | effectively restored the transcription of mesoderm and cell cycle checkpoint genes | correlated most strongly; also recorded: correlate most strongly with WT ECs | strongest restorative effect |
